According to patent US20220009906A1, “ISOINDOLIN-1-ONE DERIVATIVES USEFUL AS GRK2 INHIBITORS” (priority 2020, published 2022):
Like-named read-outs stand apart in the source and are kept apart here.

Target: T1, GRK2 (Homo sapiens, UniProt P25098)
T1 sequence (P25098 1-689): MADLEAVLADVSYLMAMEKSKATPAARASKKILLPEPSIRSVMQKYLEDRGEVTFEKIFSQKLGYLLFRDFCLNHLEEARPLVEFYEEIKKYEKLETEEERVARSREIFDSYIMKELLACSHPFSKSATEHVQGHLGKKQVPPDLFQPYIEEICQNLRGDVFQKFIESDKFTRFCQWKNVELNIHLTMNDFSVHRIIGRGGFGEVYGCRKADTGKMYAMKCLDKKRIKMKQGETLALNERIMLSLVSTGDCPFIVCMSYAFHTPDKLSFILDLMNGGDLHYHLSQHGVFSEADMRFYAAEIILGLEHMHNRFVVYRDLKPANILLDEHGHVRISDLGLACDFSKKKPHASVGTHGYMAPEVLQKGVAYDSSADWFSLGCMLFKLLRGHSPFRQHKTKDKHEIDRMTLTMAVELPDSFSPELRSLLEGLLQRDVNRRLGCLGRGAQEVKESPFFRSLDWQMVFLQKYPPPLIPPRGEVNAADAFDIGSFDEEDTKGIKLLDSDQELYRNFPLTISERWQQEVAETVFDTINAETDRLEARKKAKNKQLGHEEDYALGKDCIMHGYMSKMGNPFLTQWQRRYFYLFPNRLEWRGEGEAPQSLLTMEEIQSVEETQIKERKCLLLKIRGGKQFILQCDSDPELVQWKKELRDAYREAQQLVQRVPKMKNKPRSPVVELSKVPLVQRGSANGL
Assay: hGRK2 LANCE Ultra In Vitro Assay
Assay type: biochemical
Conditions: 10 nM GRK2, 30 or 600 μM ATP (not stated which), multiple measurements listed individually
Procedure: hGRK2 LANCE Ultra In Vitro Assay
G-protein coupled receptor kinases (GR Kinases) desensitize activated G-protein coupled receptors (GPCRs), by phosphorylation of cytoplasmic loops or carboxyl-terminal tails of GPCRs. GRK2 is one of the 6 different GR kinases and is implicated in heart failure and diabetes.
This assay is sensitive and requires as low as 10 nM enzyme, in a total volume of 10 μL. In addition, the ATP concentration can be varied over a broad range, without interfering with the assay or changing the assay condition. […] Testing inhibitors routinely at both high and low ATP concentrations also enables identification of potential non-ATP competitive inhibitors.
Paroxetine was used as the reference compound in this assay.
Test compounds were dissolved in DMSO at 1 mM and were 3-fold serial diluted. The compound DMSO solutions were then added (100 nL) into a plate well using an acoustic dispenser. To each well was then added 20 nM GRK2 (5 μL) in assay buffer (20 mM HEPES, pH 7.5, 10 mM MgCl2, 0.001% Tween-20®). The plate was sealed and centrifuged at 1000 rpm for 1 min. The plate and wells containing a mixture of GRK2 and test compound were incubated at ambient temperature for 30 min (prior to initializing the enzymatic reaction).
Enzyme reactions were initiated by the addition of 4.9 μL Substrates/Eu-Ab mix to each well. […] Final concentrations of reagents in the assays were as follows: 20 mM HEPES, pH 7.5; 10 mM MgCl2; 0.001% Tween-20® (w/v); 30 or 600 μM ATP; 200 nM ULight-peptide; 4 nM Eu-Ab; 10 nM GRK2; and 1% DMSO.
The plates were sealed and centrifuged at 1000 rpm for 1 min. For reactions at low ATP concentration (30 μM), reaction mixtures were incubated at ambient temperature for 120 min. For reactions at high ATP concentration (600 μM), reaction mixtures were incubated at ambient temperature for 60 min.
The enzyme reactions were quenched by addition of 10 μL of 12 mM EDTA in 1× LANCE detection solution to each well. The plates were then incubated at ambient temperature for 30 min. Time-resolved fluorescence signal of reactions were read on an EnVision or PHERAstar plate reader with the following parameters: Excitation wavelength=337 nm; emission wavelength (donor)=620 nm; emission wavelength (acceptor)=665 nm.
The raw HTRF data were converted to % active as follows:
% active=(sample−NC)/(PC−NC)*100
where NC is the mean of negative control (reactions without GRK2), and PC is the mean of positive control (reactions with GRK2 but without inhibitor). IC50 values were determined from a 4-parameter fit, using the following equation:
Y=Bottom+(Top−Bottom)/(1+10^((Log IC50−X)*Hill slope))
where X=log10 of the compound concentration.

[1] = Biological Example 1 GRK2 Lancer IC50 (μM)

CCOc1cccc([C@H](CO)N2Cc3ccc(-c4cn[nH]c4)cc3C2=O)c1 [Compound 112]
IC50 [1]: 0.306 µM

COc1cccc(C(Cc2nnn[nH]2)N2Cc3ccc(-c4cn[nH]c4)cc3C2=O)c1 (stereo not shown) [Compound 84]
IC50 [1]: 0.167 µM

COC(=O)NC1CCC2(C1)c1ccc(-c3cn[nH]c3)cc1C(=O)N2Cc1cccc(OC)c1 (stereo not shown) [Compound 109, methyl (2′-(3-methoxybenzyl)-3′-oxo-5′-(1H-pyrazol-4-yl)spiro[cyclopentane-1,1′-isoindolin]-3-yl)carbamate]
IC50 [1]: 0.006 µM

COCC(c1cccc(OC)c1)N1Cc2ccc(-c3cn[nH]c3)cc2C1=O (stereo not shown) [Compound 59, 2-(2-methoxy-1-(3-methoxyphenyl)ethyl)-6-(1H-pyrazol-4-yl)isoindolin-1-one]
IC50 [1]: 0.009 µM

COc1cccc(CN2C(=O)c3cc(-c4cn[nH]c4)ccc3C23CCCC3N)c1 (stereo not shown) [Compound 123, 2-amino-2′-(3-methoxybenzyl)-5′-(1H-pyrazol-4-yl)spiro[cyclopentane-1,1′-isoindolin]-3′-one]
IC50 [1]: 0.015 µM

CCOc1cccc(CN2C(=O)c3cc(-c4c[nH]nn4)ccc3C2(C)C)c1 [Compound 39, 2-(3-Ethoxybenzyl)-3,3-dimethyl-6-(1H-1,2,3-triazol-4-yl)isoindolin-1-one]
IC50 [1]: 0.196 µM

COc1cccc([C@@H](C2CC2)N2Cc3ccc(-c4cn[nH]c4)cc3C2=O)c1 [Compound 96]
IC50 [1]: 0.012 µM

COc1cccc(C(CO)N2Cc3ccc(-c4cn[nH]c4)cc3C2=O)c1 (single isomer, unassigned) [Compound 172]
IC50 [1]: 0.148 µM

COc1cccc([C@@H](C)N2Cc3c(cc(-c4cn[nH]c4)cc3-c3ccnc(C(C)(C)C)c3)C2=O)c1 [Compound 154, (R)-4-(2-(tert-butyl)pyridin-4-yl)-2-(1-(3-methoxyphenyl)ethyl)-6-(1H-pyrazol-4-yl)isoindolin-1-one]
IC50 [1]: 0.932 µM

COc1cccc([C@@H](C)N2Cc3c(cc(-c4cn[nH]c4)cc3-c3ccncc3)C2=O)c1 [Compound 121, (R)-2-(1-(3-methoxyphenyl)ethyl)-6-(1H-pyrazol-4-yl)-4-(pyridin-4-yl)isoindolin-1-one]
IC50 [1]: 0.01 µM

COc1cccc(C(C(=O)O)N2Cc3ccc(-c4cn[nH]c4)cc3C2=O)c1 (stereo not shown) [Compound 71]
IC50 [1]: 0.815 µM

CCOc1cccc([C@@H](C)N2Cc3ccc(-c4ncccn4)cc3C2=O)c1 [Compound 171]
IC50 [1]: 0.104 µM

COc1ccnc(CN2Cc3ccc(-c4cn[nH]c4)cc3C2=O)c1 [Compound 105]
IC50 [1]: 0.071 µM

COc1cccc([C@@H](C)N2Cc3c(cc(-c4cn[nH]c4)cc3-c3ccc(O)cc3)C2=O)c1 [Compound 129, (R)-4-(4-hydroxyphenyl)-2-(1-(3-methoxyphenyl)ethyl)-6-(1H-pyrazol-4-yl)isoindolin-1-one]
IC50 [1]: 0.011 µM

COc1cccc([C@@H](C)N2Cc3c(cc(-c4cn[nH]c4)cc3-c3cccnc3N)C2=O)c1 [Compound 125, (R)-4-(2-aminopyridin-3-yl)-2-(1-(3-methoxyphenyl)ethyl)-6-(1H-pyrazol-4-yl)isoindolin-1-one]
IC50 [1]: 0.022 µM

CCOc1cccc([C@H](C(=O)O)N2Cc3ccc(-c4cn[nH]c4)cc3C2=O)c1 [Compound 74]
IC50 [1]: 4.2 µM

CC(C)Oc1cccc(CN2Cc3ccc(-c4cn[nH]c4)cc3C2=O)c1 [Compound 69, 2-(3-Isopropoxybenzyl)-6-(1H-pyrazol-4-yl)isoindolin-1-one]
IC50 [1]: 0.006 µM

COc1cccc([C@@H](C)N2Cc3c(cc(-c4cn[nH]c4)cc3C3CCNC3)C2=O)c1 (stereo partly drawn) [Compound 144, 2-((R)-1-(3-methoxyphenyl)ethyl)-6-(1H-pyrazol-4-yl)-4-(pyrrolidin-3-yl)isoindolin-1-one]
IC50 (read-out: Biological Example 1 GRK2 Lancer IC50): 0.007 µM

O=C1c2cc(-c3cn[nH]c3)ccc2CN1Cc1cccc(OC2CCOC2)c1 (stereo not shown) [Compound 90]
IC50 [1]: 0.137 µM

O=C1c2cc(-c3cn[nH]c3)ccc2CN1Cc1cccc(OCc2nn[nH]n2)c1 [Compound 88, 2-(3-((2H-Tetrazol-5-yl)methoxy)benzyl)-6-(1H-pyrazol-4-yl)isoindolin-1-one]
IC50 [1]: 0.029 µM

COc1cccc(C(CO)N2Cc3ccc(-c4cn[nH]c4)cc3C2=O)c1 (single isomer, unassigned) [Compound 113, 2-[(1S*)-2-hydroxy-1-(3-methoxyphenyl)ethyl]-6-(1H-pyrazol-4-yl)isoindolin-1-one]
IC50 [1]: 0.003 µM

COc1cccc(CN2C(=O)c3cc(-c4cn[nH]c4)ccc3C23CCOC3)c1 (stereo not shown) [Compound 75, 2′-(3-methoxybenzyl)-5′-(1H-pyrazol-4-yl)-4,5-dihydro-2H-spiro[furan-3,1′-isoindolin]-3′-one]
IC50 [1]: 0.007 µM

CCOc1cccc(CN2C(=O)c3cc(-c4cn[nH]c4)ccc3C2CC#N)c1 (stereo not shown) [Compound 65, 2-(2-(3-ethoxybenzyl)-3-oxo-5-(1H-pyrazol-4-yl)isoindolin-1-yl)acetonitrile]
IC50 [1]: 0.039 µM

O=C1c2cc(-c3cn[nH]c3)ccc2CN1Cc1cccc(O)c1 [Compound 135]
IC50 [1]: 0.005 µM

COc1cccc(CN2C(=O)c3cc(-c4cn[nH]c4)ccc3C23CCC(O)C3)c1 (stereo not shown) [Compound 46, 3-hydroxy-2′-(3-methoxybenzyl)-5′-(1H-pyrazol-4-yl)spiro[cyclopentane-1,1′-isoindolin]-3′-one]
IC50 [1]: 0.007 µM

CCOc1cccc([C@@H](C)N2Cc3ccc(-c4cn[nH]c4)c(F)c3C2=O)c1 [Compound 48]
IC50 [1]: 0.01 µM

COc1cccc(CN2C(=O)c3cc(-c4cn[nH]c4)ccc3C2(CCO)CCO)c1 [Compound 41, 3,3-bis(2-hydroxyethyl)-2-(3-methoxybenzyl)-6-(1H-pyrazol-4-yl)isoindolin-1-one]
IC50 [1]: 0.034 µM

O=C1c2cc(-c3cn[nH]c3)ccc2CN1Cc1ccc(F)s1 [Compound 43, 2-((5-Fluorothiophen-2-yl)methyl)-6-(1H-pyrazol-4-yl)isoindolin-1-one]
IC50 [1]: 0.088 µM

COc1cccc([C@@H](C)N2Cc3c(cc(-c4cn[nH]c4)cc3-c3cncc(F)c3)C2=O)c1 [Compound 120, (R)-4-(5-fluoropyridin-3-yl)-2-(1-(3-methoxyphenyl)ethyl)-6-(1H-pyrazol-4-yl)isoindolin-1-one]
IC50 [1]: 0.009 µM

COc1cccc([C@@H](C)N2Cc3c(cc(-c4cn[nH]c4)cc3-c3cncnc3)C2=O)c1 [Compound 130, 2-[(1R)-1-(3-methoxyphenyl)ethyl]-6-(1H-pyrazol-4-yl)-4-pyrimidin-5-yl-isoindolin-1-one]
IC50 [1]: < 0.005 µM

COc1cccc(C(CO)N2Cc3c(cc(-c4cn[nH]c4)cc3-c3cncnc3)C2=O)c1 (stereo not shown) [Compound 158, 2-(2-hydroxy-1-(3-methoxyphenyl)ethyl)-6-(1H-pyrazol-4-yl)-4-(pyrimidin-5-yl)isoindolin-1-one]
IC50 [1]: 0.027 µM

COc1cccc(CN2C(=O)c3cc(-c4cn[nH]c4)ccc3C23CCC2OC(=O)NC23)c1 (stereo not shown) [Compound 151, 2′-(3-methoxybenzyl)-5′-(1H-pyrazol-4-yl)-3a,5,6,6a-tetrahydrospiro[cyclopenta[d]oxazole-4,1′-isoindoline]-2,3′(3H)-dione]
IC50 [1]: 0.011 µM

Cc1ccc(CN2Cc3ccc(-c4cn[nH]c4)cc3C2=O)s1 [Compound 27]
IC50 [1]: 0.324 µM

O=C1c2cc(-c3cn[nH]c3)ccc2CN1Cc1cccc(OC2COC2)c1 [Compound 91]
IC50 [1]: 0.116 µM
